From patent US20240368174A1, “Antiviral Heterocyclic Compounds” (Enanta Pharmaceuticals, Inc., priority 2023, published 2024)

Tested on: HMPV clinical isolate A2 strain TN 94-49
Assay: HMPV antiviral assay, Method 2 (LLC-MK2 cells with CP-100-356, ATP-Lite)
Format: cell-based
Conditions: human metapneumovirus
Procedure: In vitro HMPV antiviral activity was evaluated using the clinical isolate A2 strain TN 94-49 (obtained from Dr. John Williams, Vanderbilt University, Tennessee) and LLC-MK2 cells (Millipore Sigma CB_85062804), an immortalized kidney epithelial cell line from Macaca mulatta. Compounds were resuspended in dimethyl sulfoxide (DMSO) at 10 mM, serially diluted and added to a 384-well source plate. Subsequently, the compounds were diluted and transferred onto 384-well assay plates using the Echo-650 automated liquid handling system (Beckman Coulter, Indiana). The test compounds were assessed in duplicate at a top concentration of 200 nM followed by 2.5-fold serial dilutions to give a total of 10 concentration points. DMSO control wells were also included on the assay plates and were either infected or not, acting as positive and negative controls. A2 TN 94-49 virus infections were performed in-suspension with LLC-MK2 cells. The cells were washed twice with PBS and removed from the cell-culture flask with 0.25% trypsin-EDTA (Thermo Fisher Scientific, MA). The trypsin-EDTA was inactivated by resuspending in 2% fetal bovine serum (FBS) and OptiMEM (ThermoFisher Scientific, MA) containing 1% antibiotic-antimycotic. Cells were pelleted by centrifuging for 5 minutes at 800 rpm, the supernatant was removed, and cells were re-suspended and washed in PBS plus 100 μg/mL CaCl2). This step was performed twice. Cells were then re-suspended in serum-free (SF)-OptiMEM containing 4 μg/mL TPCK-Trypsin (Sigma Aldrich, MO), 1% antibiotic-antimycotic (ThermoFisher Scientific, MA), 100 μg/mL CaCl2), and 4 μM of CP-100-356, a P-glycoprotein inhibitor. Cells were counted and seeded at a density of 5,000 cells/well, 12.5 μL/well. Virus infections were done at a multiplicity of infection (MOI) of 0.16 with 12.5 μL added per well. Virus infections were performed in infection media which contained SF-OptiMEM, 100 μg/mL CaCl2) and 1% antibiotic-antimycotic. HMPV viral stocks are suspended in infection media+5% glycerol, thus an equal volume of infection media+5% glycerol was added to uninfected wells to equalize the final % glycerol across all wells of the assay plate. The final concentration of TPCK-trypsin was 2 μg/mL. The final concentration of CP-100-356 was 2 μM. The assay plates were incubated at 37° C., 5% CO2 for 7 days. After 7 days incubation, 12.5 μL of ATP-Lite (PerkinElmer, MA) was added to each well and the raw luminescence values were determined using the Envision 2104 (Perkin Elmer, MA). The average of the raw luminescence values for the cells and virus only positive control wells was subtracted from all conditions tested and the percent cell health was determined by dividing these values by the average of the cells only negative control wells. EC50 values were then calculated by non-linear regression using a four-parameter curve logistic equation. The curve fit model employed was XLFit Dose Response One Site Model 200: y=(A+(B/(1+((x/C)^D)))), where A is the minimum y value, B is the maximum y value, C is the log EC50 value, and D is the slope factor.

[1] = 168 h, hMPV A2 TN/94-49, LLC-MK2 cells with 4 μM CP-100-356, 7 days, ATP-Lite
[2] = hMPV A2 TN/94-49, LLC-MK2 cells with CP-100-356, Method 2

EC50 [1]	EC50 [2]	Compound
< 200 nM		COc1nccc(-c2nc([C@@](O)(CNC(=O)c3cc(OC)c4nn(C(F)F)cc4c3)C(F)(F)F)cc3c2OC[C@]3(C)C(N)=O)c1Cl [Example 798]
< 200 nM		COc1cc(C(=O)NC[C@](O)(c2cc3c(c(-c4cc(C(F)(F)F)ncc4F)n2)OC[C@]3(C)C(N)=O)C2(F)CC2)cc2cn(C3CC3)nc12 [Example 665]
	< 200 nM	COc1cc(C(=O)NC[C@](O)(c2cc3c(c(-c4ccnc(C(F)(F)F)c4Cl)n2)OC[C@]3(C)C(N)=O)C2CC2)cn2cc(C3CC3)nc12 [Example 580]
	< 200 nM	COc1cc(C(=O)NC[C@](O)(c2cc3c(c(-c4ccnc(C(F)(F)F)c4Cl)n2)OC[C@]3(C)C(N)=O)C(F)(F)F)cc2sc(C)nc12 [Example 537]
	> 200 nM	C[C@]1(C(N)=O)COc2c1cc([C@@](O)(CNC(=O)c1ccc3nc(Cc4ccccc4)oc3c1)c1ccccc1)nc2-c1cc(Cl)c(F)cc1F [Example 230]
< 200 nM		COc1nccc(-c2nc([C@@](O)(CNC(=O)c3cc(OC4CC4)c4nn(C5(F)CC5)cc4c3)C(C)C)cc3c2OC[C@]3(C)C(N)=O)c1Cl [Example 892]
	< 200 nM	COc1cc(C(=O)NC[C@@](O)(c2cccc(F)n2)c2cc3c(c(-c4cc(Cl)c(F)cc4F)n2)OC[C@]3(C)C(N)=O)cc2cn(C3CC3)nc12 [Example 203]
	< 200 nM	COc1cc(C(=O)NC[C@](O)(c2cc3c(c(-c4ccnc(F)c4Cl)n2)OC[C@]3(C)C(N)=O)C2CC2)cc2cn(C(F)F)nc12 [Example 207]
> 200 nM		COc1cc(C(=O)NC[C@](O)(c2cc3c(c(-c4ccnc(OCC(C)C)c4Cl)n2)OC[C@]3(C)C(N)=O)C2CC2)cc2cn(C3CC3)nc12 [Example 804]
	> 200 nM	COc1cc(C(=O)NC[C@](O)(c2cccc(F)c2)c2cc3c(c(-c4ccc(C(C)(C)O)cc4)n2)OC[C@]3(C)C(N)=O)cc2cn(C3(F)CC3)nc12 [Example 398]
	> 200 nM	COc1cc(C(=O)NCC(O)(c2cc3c(c(-c4cc(Cl)c(F)cc4F)n2)OC[C@]3(C)C(N)=O)c2ccc(Cl)s2)cc2cn(C3CC3)nc12 (stereo partly drawn) [Example 472]
	< 200 nM	C[C@]1(C(N)=O)COc2c1cc([C@@](O)(CNC(=O)c1cc(OC(F)F)c3nc(C4CC4)oc3c1)c1ccccc1)nc2-c1cc(Cl)c(F)cc1F [Example 216]
	> 200 nM	COc1cc(C(=O)NC[C@@](O)(c2cc[nH]c(=O)c2)c2cc3c(c(-c4cc(Cl)c(F)cc4F)n2)OC[C@]3(C)C(N)=O)cc2cn(C3CC3)nc12 [Example 504]
< 200 nM		COc1cc(-c2nc([C@@](O)(CNC(=O)c3cc(OC)n4nc(C5CC5)cc4c3)c3ccccc3)cc3c2OC[C@]3(C)C(N)=O)c(F)cn1 [Example 639]
	< 200 nM	COc1cc(C(=O)NC[C@@](O)(c2ccccc2)c2cc3c(c(-c4ccnc(C(F)F)c4Cl)n2)OC[C@]3(C)C(N)=O)cc2oc(C3CC3)nc12 [Example 564]
< 200 nM		COc1cc(C(=O)NC[C@](O)(c2cc3c(c(-c4cccc(F)c4Cl)n2)OC[C@]3(C)C(N)=O)C2(F)CC2)cc2cn(C3CC3)nc12 [Example 617]
< 200 nM		COc1nccc(-c2nc([C@@](O)(CNC(=O)c3cc(OC4CC4)c4nn(C5(F)CC5)cc4c3)C3(F)CC3)cc3c2OC[C@]3(C)C(N)=O)c1Cl [Example 658]
> 200 nM		COc1nccc(-c2nc([C@@](O)(CNC(=O)c3cc(OC)c4nn(C5CC5)cc4c3)C3CC3)cc3c2OC[C@]3(C)C(N)=O)c1OC [Example 813]
	< 200 nM	COc1nccc(-c2nc([C@@](O)(CNC(=O)c3cc(OC)c4nc(C)sc4c3)C(F)(F)F)cc3c2OC[C@]3(C)C(N)=O)c1Cl [Example 546]
	< 200 nM	COc1cc(-c2nc([C@@](O)(CNC(=O)c3cc(OC)c4nn(C5CC5)cc4c3)C3CC3)cc3c2OC[C@]3(C)C(N)=O)c(F)cn1 [Example 388]
	< 200 nM	C[C@]1(C(N)=O)COc2c1cc([C@@](O)(CNC(=O)c1cc(OC3CC3)n3nc(C4CC4)cc3c1)c1cccc(F)c1)nc2-c1cccc(Cl)c1Cl [Example 335]

EC50 [1]	EC50 [2]	Compound
	< 200 nM	COc1cc(C(=O)NC[C@](O)(c2cc3c(c(-c4ccnc(C)c4Cl)n2)OC[C@]3(C)C(N)=O)C2(F)CC2)cc2cn(C3(F)CC3)nc12 [Example 525]
< 200 nM		COc1cc(C(=O)NC[C@](O)(c2cc3c(c(-c4ccnc(C(F)(F)F)c4)n2)OC[C@]3(C)C(N)=O)C2CC2)cc2cn(C3(F)CC3)nc12 [Example 761]
> 200 nM		COc1cc(C(=O)NC[C@](O)(c2cc3c(c(-n4ncc5c4CCCC5)n2)OC[C@]3(C)C(N)=O)C2CC2)cc2cn(C3CC3)nc12 [Example 642]
	< 200 nM	C[C@]1(C(N)=O)COc2c1cc([C@@](O)(CNC(=O)c1cc(Cl)c3nn(C4CC4)cc3c1)C1(F)CC1)nc2-c1ccnc(Cl)c1Cl [Example 523]
	> 200 nM	CC(C)c1nc2ccc(C(=O)NC[C@@](O)(c3ccccc3)c3cc4c(c(-c5cc(Cl)c(F)cc5F)n3)OC[C@]4(C)C(N)=O)cc2o1 [Example 224]
	> 200 nM	COc1cc(OC)c2cc(C(=O)NC[C@@](O)(c3ccccc3)c3cc4c(c(-c5cc(Cl)c(F)cc5F)n3)OC[C@]4(C)C(N)=O)[nH]c2c1 [Example 94]
> 200 nM		COc1cc(C(=O)NC[C@](O)(c2cc3c(c(-c4ccnc(C(C)C)c4Cl)n2)OC[C@]3(C)C(N)=O)C2CC2)cn2cc(C3CC3)nc12 [Example 911]
	< 200 nM	Cc1nc2c(OC3CC3)cc(C(=O)NC[C@@](O)(c3ccccc3)c3cc4c(c(-c5cc(Cl)c(F)cc5F)n3)OC[C@]4(C)C(N)=O)cc2s1 [Example 189]
	< 200 nM	COc1cc(C(=O)NC[C@](O)(c2cc3c(c(-c4cc(Cl)ncc4Cl)n2)OC[C@]3(C)C(N)=O)C2CC2)cc2cn(C3CC3)nc12 [Example 389]
> 200 nM		COc1cc(C(=O)NC[C@](O)(c2cc3c(c(-c4ccnc(C(C)C)c4Cl)n2)OC[C@]3(C)C(N)=O)C2CC2)cc2cn(C3(F)CC3)nc12 [Example 908]
	< 200 nM	COc1cc(C(=O)NC[C@@](O)(c2ccc(F)cc2)c2cc3c(c(-c4ccnc(C(F)(F)F)c4F)n2)OC[C@]3(C)C(N)=O)cc2cn(C(F)F)nc12 [Example 572]
	> 200 nM	COc1cc(C(=O)NC[C@@](O)(c2ccc(S(C)(=O)=O)cc2)c2cc3c(c(-c4cc(Cl)c(F)cc4F)n2)OC[C@]3(C)C(N)=O)cc2cn(C3CC3)nc12 [Example 482]
	< 200 nM	COc1nccc(-c2nc([C@@](O)(CNC(=O)c3cc(OC)c4nn(C5(F)CC5)cc4c3)c3cccc(F)c3)cc3c2OC[C@]3(C)C(N)=O)c1Cl [Example 559]
	< 200 nM	COc1cc(C(=O)NC[C@](O)(c2cc3c(c(-c4ccnc(Cl)c4Cl)n2)OC[C@]3(C)C(N)=O)C2(F)CC2)cc2cn(C3(F)CC3)nc12 [Example 519]
	< 200 nM	COc1cc(C(=O)NC[C@@](O)(c2ccccc2)c2cc3c(c(-c4cccc(Cl)c4Cl)n2)OC[C@]3(C)C(N)=O)cc2oc(C3CC3)nc12 [Example 96]
	> 200 nM	Cc1nccc(-c2nc([C@@](O)(CNC(=O)c3cc(Cl)c4nn(C5CC5)cc4c3)C3(F)CC3)cc3c2OC[C@]3(C)C(N)=O)c1Cl [Example 529]
	< 200 nM	COc1cc([C@](O)(CNC(=O)c2cc(OC)c3nn(C4CC4)cc3c2)c2cc3c(c(-c4cccc(Cl)c4Cl)n2)OC[C@]3(C)C(N)=O)cc(OC)n1 [Example 497]
	< 200 nM	COc1cc(C(=O)NC[C@](O)(c2cc3c(c(-c4ccnc(Cl)c4Cl)n2)OC[C@]3(C)C(N)=O)C2CC2)cc2cn(C3CC3)nc12 [Example 387]
	< 200 nM	Cc1nccc(-c2nc([C@@](O)(CNC(=O)c3cc(OC4CC4)c4nn(C5CC5)cc4c3)C3CC3)cc3c2OC[C@]3(C)C(N)=O)c1Cl [Example 600]
	< 200 nM	COc1cc(C(=O)NC[C@](O)(c2cc3c(c(-c4ccnc(C(F)F)c4Cl)n2)OC[C@]3(C)C(N)=O)C(F)(F)F)cc2oc(C(F)F)nc12 [Example 552]
	< 200 nM	C[C@]1(C(N)=O)COc2c1cc([C@@](O)(CNC(=O)c1cc(OC3CC3)n3nc(C4CC4)cc3c1)c1ccccc1)nc2-c1cc(Cl)c(F)cc1F [Example 191]
